Experimental data as given in paper PMC4051630, “A Comparison of Protein Kinases Inhibitor Screening Methods Using Both Enzymatic Activity and Binding Affinity Determination” (PLoS ONE, 2014).

Experiments:
AKT3 Catalytic Domain [1] = molecular target: T1, AKT3 Catalytic Domain (Homo sapiens, UniProt Q9Y243); test: Caliper mobility shift kinase activity assay; assay type: biochemical; conditions: AKT3 CD (122–479); read-out: ATP Km
T1 construct: AKT3 (Q9Y243); CD; His-tag; made in house; host or cells: Escherichia coli
T1 sequence (Q9Y243 122-479): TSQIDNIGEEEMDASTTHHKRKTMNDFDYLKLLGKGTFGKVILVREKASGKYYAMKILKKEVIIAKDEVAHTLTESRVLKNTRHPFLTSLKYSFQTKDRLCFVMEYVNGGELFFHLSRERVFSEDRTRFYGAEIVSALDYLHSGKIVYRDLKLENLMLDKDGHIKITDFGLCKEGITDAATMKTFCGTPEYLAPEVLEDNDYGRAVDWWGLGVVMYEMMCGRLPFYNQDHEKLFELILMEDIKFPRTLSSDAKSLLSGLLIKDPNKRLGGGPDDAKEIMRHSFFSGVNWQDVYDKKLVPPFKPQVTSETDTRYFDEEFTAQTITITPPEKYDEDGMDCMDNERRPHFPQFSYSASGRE

STK3 Catalytic Domain [2] = molecular target: T2, STK3 Catalytic Domain (Homo sapiens, UniProt Q13188); test: Caliper mobility shift kinase activity assay; assay type: biochemical; conditions: STK3 CD; read-out: ATP Km
T2 construct: For all of them, we expressed and purified the catalytic domain separately; His-tag; made in house; host or cells: Escherichia coli
T2 sequence (Q13188 27-278 limits assumed): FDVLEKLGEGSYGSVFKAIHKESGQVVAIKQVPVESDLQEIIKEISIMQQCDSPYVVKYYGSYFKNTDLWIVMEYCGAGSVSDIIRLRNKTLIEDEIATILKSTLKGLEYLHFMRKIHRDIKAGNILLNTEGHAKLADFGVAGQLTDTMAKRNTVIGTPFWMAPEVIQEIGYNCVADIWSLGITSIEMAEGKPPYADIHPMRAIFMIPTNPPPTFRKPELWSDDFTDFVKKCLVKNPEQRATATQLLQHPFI

DMPK Catalytic Domain [3] = molecular target: T3, DMPK Catalytic Domain (Homo sapiens, UniProt Q09013); test: Caliper mobility shift kinase activity assay; assay type: biochemical; conditions: DMPK CD; read-out: ATP Km
T3 construct: For all of them, we expressed and purified the catalytic domain separately; His-tag; made in house; host or cells: Escherichia coli
T3 sequence (Q09013 71-339 limits assumed): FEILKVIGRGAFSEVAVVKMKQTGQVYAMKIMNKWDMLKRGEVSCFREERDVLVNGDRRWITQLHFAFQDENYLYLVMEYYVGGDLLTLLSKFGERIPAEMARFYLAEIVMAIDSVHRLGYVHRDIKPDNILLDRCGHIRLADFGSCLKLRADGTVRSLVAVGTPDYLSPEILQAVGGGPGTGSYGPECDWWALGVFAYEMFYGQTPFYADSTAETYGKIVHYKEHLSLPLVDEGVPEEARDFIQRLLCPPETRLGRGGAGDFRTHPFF

CDK2 + Cyclin E [4] = molecular target: T4, CDK2 + Cyclin E (Homo sapiens, UniProt P24941); test: Caliper mobility shift kinase activity assay; assay type: biochemical; conditions: CDK2 with CCNE1 (Cyclin E); read-out: ATP Km
T4 construct: CDK2 (P24941); 1–299; His-tag; made in house; host or cells: Escherichia coli

FES Catalytic Domain [5] = molecular target: T5, FES Catalytic Domain (Homo sapiens, UniProt P07332); test: Caliper mobility shift kinase activity assay; assay type: biochemical; conditions: FES CD; read-out: ATP Km
T5 construct: For all of them, we expressed and purified the catalytic domain separately; His-tag; made in house; host or cells: Escherichia coli
T5 sequence (P07332 561-822 limits assumed): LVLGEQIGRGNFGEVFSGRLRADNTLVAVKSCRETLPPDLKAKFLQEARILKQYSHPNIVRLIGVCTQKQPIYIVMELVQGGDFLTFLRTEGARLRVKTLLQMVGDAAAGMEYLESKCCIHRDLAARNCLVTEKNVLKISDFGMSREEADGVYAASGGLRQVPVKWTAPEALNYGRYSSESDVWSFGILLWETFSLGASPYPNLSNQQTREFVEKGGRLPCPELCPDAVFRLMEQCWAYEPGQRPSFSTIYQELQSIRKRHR

PAK7 Catalytic Domain [6] = molecular target: T6, PAK7 Catalytic Domain (Homo sapiens, UniProt Q9P286); test: Caliper mobility shift kinase activity assay; assay type: biochemical; conditions: PAK7 CD; read-out: ATP Km
T6 construct: For all of them, we expressed and purified the catalytic domain separately; His-tag; made in house; host or cells: Escherichia coli
T6 sequence (Q9P286 449-700 limits assumed): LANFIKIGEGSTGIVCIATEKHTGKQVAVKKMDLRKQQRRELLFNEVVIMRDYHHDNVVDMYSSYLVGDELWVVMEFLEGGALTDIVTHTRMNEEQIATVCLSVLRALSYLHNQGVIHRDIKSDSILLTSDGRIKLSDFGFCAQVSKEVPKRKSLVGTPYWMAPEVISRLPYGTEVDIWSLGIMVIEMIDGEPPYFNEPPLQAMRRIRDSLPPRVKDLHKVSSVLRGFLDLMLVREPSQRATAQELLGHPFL

[7] = molecular target: T7, SRC Catalytic Domain+SH2+SH3 (Homo sapiens, UniProt P12931); conditions: read-out: ATP Km; SRC CD+SH2/3
CDK2 + Cyclin A [8] = molecular target: T8, CDK2 + Cyclin A (Homo sapiens, UniProt P24941); test: Caliper mobility shift kinase activity assay; assay type: biochemical; conditions: CDK2 with CCNA2 (Cyclin A); read-out: ATP Km
T8 construct: CDK2 (P24941); 1–299; His-tag; made in house; host or cells: Escherichia coli

SRC Catalytic Domain [9] = molecular target: T9, SRC Catalytic Domain (Homo sapiens, UniProt P12931); conditions: read-out: ATP Km; SRC CD
FES Catalytic Domain+SH2 [10] = molecular target: T10, FES Catalytic Domain+SH2 (Homo sapiens, UniProt P07332); test: Caliper mobility shift kinase activity assay; assay type: biochemical; conditions: FES CD+SH2; read-out: ATP Km
T10 construct: for 8, we also made a longer version containing one or more additional domains; His-tag; made in house; host or cells: Escherichia coli
T10 sequence (P07332 448-822 limits assumed): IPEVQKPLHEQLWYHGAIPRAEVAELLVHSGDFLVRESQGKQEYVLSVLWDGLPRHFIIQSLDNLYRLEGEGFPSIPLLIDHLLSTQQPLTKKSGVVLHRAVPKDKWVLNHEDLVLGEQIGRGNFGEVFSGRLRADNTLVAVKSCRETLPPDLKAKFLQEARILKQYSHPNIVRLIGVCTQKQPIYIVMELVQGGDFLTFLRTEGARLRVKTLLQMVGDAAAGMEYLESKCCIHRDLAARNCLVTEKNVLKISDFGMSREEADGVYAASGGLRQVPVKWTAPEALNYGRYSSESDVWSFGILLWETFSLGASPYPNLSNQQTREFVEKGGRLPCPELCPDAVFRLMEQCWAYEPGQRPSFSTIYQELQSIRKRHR

[11] = molecular target: T11, STK3 Catalytic domain+SARAH (Homo sapiens, UniProt Q13188); test: Caliper mobility shift kinase activity assay; assay type: biochemical; conditions: STK3 CD+SARAH; read-out: ATP Km
T11 construct: for 8, we also made a longer version containing one or more additional domains; His-tag; made in house; host or cells: Escherichia coli
T11 sequence (Q13188 1-491): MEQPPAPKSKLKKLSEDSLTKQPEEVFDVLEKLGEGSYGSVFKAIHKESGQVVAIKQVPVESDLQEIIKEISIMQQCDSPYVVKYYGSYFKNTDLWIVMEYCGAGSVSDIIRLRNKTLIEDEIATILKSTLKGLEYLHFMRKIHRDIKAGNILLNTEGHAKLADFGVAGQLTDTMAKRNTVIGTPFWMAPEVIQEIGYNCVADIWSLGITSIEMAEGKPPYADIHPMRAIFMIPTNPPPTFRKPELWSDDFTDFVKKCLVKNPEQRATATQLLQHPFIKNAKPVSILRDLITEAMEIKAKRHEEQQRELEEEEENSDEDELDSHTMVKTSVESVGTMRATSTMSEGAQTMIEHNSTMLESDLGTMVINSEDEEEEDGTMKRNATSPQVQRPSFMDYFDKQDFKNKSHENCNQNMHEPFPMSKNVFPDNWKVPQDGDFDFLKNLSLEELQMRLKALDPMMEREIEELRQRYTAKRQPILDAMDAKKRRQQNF

PAK4 Catalytic Domain [12] = molecular target: T12, PAK4 Catalytic Domain (Homo sapiens, UniProt O96013); test: Caliper mobility shift kinase activity assay; assay type: biochemical; conditions: PAK4 CD; read-out: ATP Km
T12 construct: For all of them, we expressed and purified the catalytic domain separately; His-tag; made in house; host or cells: Escherichia coli
T12 sequence (O96013 321-572 limits assumed): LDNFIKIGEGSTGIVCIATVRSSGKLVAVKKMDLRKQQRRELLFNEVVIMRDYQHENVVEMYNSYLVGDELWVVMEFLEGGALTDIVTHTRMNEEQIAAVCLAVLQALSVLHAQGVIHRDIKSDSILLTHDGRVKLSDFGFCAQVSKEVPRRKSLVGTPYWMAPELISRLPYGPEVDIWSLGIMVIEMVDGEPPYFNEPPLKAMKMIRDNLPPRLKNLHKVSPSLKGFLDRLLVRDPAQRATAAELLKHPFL
Experimental: (§1) This ensures comparability of compound potency between the kinases. […] […].
(§2) […]. […] […].
(§3) IC50 was determined once for each compound-kinase combination.

[13] = molecular target: T13, PAK4 Catalytic Domain+PBD (Homo sapiens, UniProt O96013); test: Caliper mobility shift kinase activity assay; assay type: biochemical; conditions: PAK4 CD+PBD; read-out: ATP Km
T13 construct: for 8, we also made a longer version containing one or more additional domains; His-tag; made in house; host or cells: Escherichia coli
T13 sequence (O96013 whole entry, the tested form may be a part): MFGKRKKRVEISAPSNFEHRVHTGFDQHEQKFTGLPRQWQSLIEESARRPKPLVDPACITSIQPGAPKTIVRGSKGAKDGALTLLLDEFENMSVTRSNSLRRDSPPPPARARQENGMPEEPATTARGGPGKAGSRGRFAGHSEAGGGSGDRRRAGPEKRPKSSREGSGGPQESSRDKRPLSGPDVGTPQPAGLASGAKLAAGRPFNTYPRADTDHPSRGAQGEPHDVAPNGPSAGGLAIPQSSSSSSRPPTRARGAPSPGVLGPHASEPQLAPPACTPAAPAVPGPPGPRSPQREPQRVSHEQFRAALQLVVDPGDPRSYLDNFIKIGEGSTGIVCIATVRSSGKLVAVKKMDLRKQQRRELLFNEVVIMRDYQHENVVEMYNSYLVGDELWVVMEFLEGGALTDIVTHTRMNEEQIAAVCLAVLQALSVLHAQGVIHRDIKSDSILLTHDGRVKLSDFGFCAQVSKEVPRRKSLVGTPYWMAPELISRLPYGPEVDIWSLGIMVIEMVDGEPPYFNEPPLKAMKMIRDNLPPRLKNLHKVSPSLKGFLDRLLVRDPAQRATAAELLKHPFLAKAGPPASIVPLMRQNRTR
Experimental: as §1, §2, §3

CHK2 Catalytic Domain [14] = molecular target: T14, CHK2 Catalytic Domain (Homo sapiens, UniProt O96017); test: Caliper mobility shift kinase activity assay; assay type: biochemical; conditions: CHK2 CD; read-out: ATP Km
T14 construct: For all of them, we expressed and purified the catalytic domain separately; His-tag; made in house; host or cells: Escherichia coli
T14 sequence (O96017 220-486 limits assumed): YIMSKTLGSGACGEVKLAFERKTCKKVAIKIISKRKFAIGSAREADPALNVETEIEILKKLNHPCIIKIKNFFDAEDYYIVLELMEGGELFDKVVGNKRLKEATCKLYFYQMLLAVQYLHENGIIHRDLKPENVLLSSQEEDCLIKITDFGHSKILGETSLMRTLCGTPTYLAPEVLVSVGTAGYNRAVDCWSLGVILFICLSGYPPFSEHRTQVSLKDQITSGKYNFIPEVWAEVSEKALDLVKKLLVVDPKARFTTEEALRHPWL

FAK2 Catalytic Domain = molecular target: T15, FAK2 Catalytic Domain (Homo sapiens, UniProt Q14289); test: Differential Scanning Fluorimetry (DSF) Tm shift; assay type: binding; conditions: 2 µM protein, 10 µM inhibitor, average of 3 experiments, each in duplicate
T15 construct: For all of them, we expressed and purified the catalytic domain separately; His-tag; made in house; host or cells: Escherichia coli
T15 sequence (Q14289 425-683 limits assumed): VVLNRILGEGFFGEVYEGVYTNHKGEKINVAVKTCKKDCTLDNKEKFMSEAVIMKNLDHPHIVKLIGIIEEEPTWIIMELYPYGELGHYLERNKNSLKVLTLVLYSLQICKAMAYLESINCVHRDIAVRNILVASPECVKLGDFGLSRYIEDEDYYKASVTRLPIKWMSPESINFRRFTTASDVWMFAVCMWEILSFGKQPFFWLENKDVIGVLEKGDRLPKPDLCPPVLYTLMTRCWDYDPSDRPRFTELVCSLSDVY

DMPK Catalytic Domain [15] = molecular target: T3, DMPK Catalytic Domain; test: Differential Scanning Fluorimetry (DSF) Tm shift; assay type: binding; conditions: 2 µM protein, 10 µM inhibitor, average of 3 experiments, each in duplicate
STK3 Catalytic Domain [16] = molecular target: T2, STK3 Catalytic Domain; test: Differential Scanning Fluorimetry (DSF) Tm shift; assay type: binding; conditions: 2 µM protein, 10 µM inhibitor, average of 3 experiments, each in duplicate
CDK2 + Cyclin A [17] = molecular target: T8, CDK2 + Cyclin A; test: Differential Scanning Fluorimetry (DSF) Tm shift; assay type: binding; conditions: CDK2 + Cyclin A; 2 µM protein, 10 µM inhibitor; average of 3 experiments, each in duplicate
SRC Catalytic Domain [18] = molecular target: T9, SRC Catalytic Domain; test: Differential Scanning Fluorimetry (DSF) Tm shift; assay type: binding; parameters: For all of them, we expressed and purified the catalytic domain separately; His-tag; made in house; host or cells: Escherichia coli; conditions: 2 µM protein, 10 µM inhibitor, average of 3 experiments, each in duplicate
CHK2 Catalytic Domain [19] = molecular target: T14, CHK2 Catalytic Domain; test: Differential Scanning Fluorimetry (DSF) Tm shift; assay type: binding; conditions: 2 µM protein, 10 µM inhibitor, average of 3 experiments, each in duplicate
FES Catalytic Domain+SH2 [20] = molecular target: T10, FES Catalytic Domain+SH2; test: Differential Scanning Fluorimetry (DSF) Tm shift; assay type: binding; conditions: 2 µM protein, 10 µM inhibitor, average of 3 experiments, each in duplicate
[21] = molecular target: T11, STK3 Catalytic domain+SARAH; test: Differential Scanning Fluorimetry (DSF) Tm shift; assay type: binding; conditions: 2 µM protein, 10 µM inhibitor, average of 3 experiments, each in duplicate
PAK7 Catalytic Domain [22] = molecular target: T6, PAK7 Catalytic Domain; test: Differential Scanning Fluorimetry (DSF) Tm shift; assay type: binding; conditions: 2 µM protein, 10 µM inhibitor, average of 3 experiments, each in duplicate
[23] = molecular target: T7, SRC Catalytic Domain+SH2+SH3; test: Differential Scanning Fluorimetry (DSF) Tm shift; assay type: binding; conditions: 2 µM protein, 10 µM inhibitor, average of 3 experiments, each in duplicate
AKT3 Catalytic Domain [24] = molecular target: T1, AKT3 Catalytic Domain; test: Differential Scanning Fluorimetry (DSF) Tm shift; assay type: binding; conditions: 2 µM protein, 10 µM inhibitor, average of 3 experiments, each in duplicate
PAK4 Catalytic Domain [25] = molecular target: T12, PAK4 Catalytic Domain; test: Differential Scanning Fluorimetry (DSF) Tm shift; assay type: binding; conditions: 2 µM protein, 10 µM inhibitor, average of 3 experiments, each in duplicate
CDK2 + Cyclin E [26] = molecular target: T4, CDK2 + Cyclin E; test: Differential Scanning Fluorimetry (DSF) Tm shift; assay type: binding; conditions: CDK2 + Cyclin E; 2 µM protein, 10 µM inhibitor; average of 3 experiments, each in duplicate
FES Catalytic Domain [27] = molecular target: T5, FES Catalytic Domain; test: Differential Scanning Fluorimetry (DSF) Tm shift; assay type: binding; conditions: 2 µM protein, 10 µM inhibitor, average of 3 experiments, each in duplicate
[28] = molecular target: T13, PAK4 Catalytic Domain+PBD; test: Differential Scanning Fluorimetry (DSF) Tm shift; assay type: binding; conditions: 2 µM protein, 10 µM inhibitor, average of 3 experiments, each in duplicate

**Q.** With Nc1ncnc2c1ncn2[C@@H]1O[C@H](COP(=O)(O)OP(=O)(O)OP(=O)(O)O)[C@@H](O)[C@H]1O [ATP] as the molecule, how does the Km (AKT3 Catalytic Domain [1]) read?
**A.** 564 ± 36 µM

**Q.** And the Km (STK3 Catalytic Domain [2])?
**A.** 140 ± 12 µM

**Q.** What about the Km (DMPK Catalytic Domain [3]) of the same molecule?
**A.** 470 ± 69 µM

**Q.** What about the Km (CDK2 + Cyclin E [4]) of the same molecule?
**A.** 145 ± 4 µM

**Q.** What about the Km (FES Catalytic Domain [5]) of the same molecule?
**A.** 49 ± 11 µM

**Q.** What about the Km (PAK7 Catalytic Domain [6]) of the same molecule?
**A.** 5 ± 0.4 µM

**Q.** And the Km [7]?
**A.** 226 ± 33 µM

**Q.** What about the Km (CDK2 + Cyclin A [8]) of the same molecule?
**A.** 238 ± 12 µM

**Q.** What about the Km (SRC Catalytic Domain [9]) of the same molecule?
**A.** 134 ± 16 µM

**Q.** What about the Km (FES Catalytic Domain+SH2 [10]) of the same molecule?
**A.** 53 ± 13 µM

**Q.** What about the Km [11] of the same molecule?
**A.** 66 ± 2 µM

**Q.** What about the Km (PAK4 Catalytic Domain [12]) of the same molecule?
**A.** 11 ± 1 µM

**Q.** And the Km [13]?
**A.** 11 ± 1 µM

**Q.** What about the Km (CHK2 Catalytic Domain [14]) of the same molecule?
**A.** 130 ± 13 µM

**Q.** With Nc1cccc(-c2cc3c(Oc4cccc(O)c4)ncnc3[nH]2)c1 [GSK3b Inhibitor XII, TWS119] as the molecule, how does the “Melting temperature (Tm) shift” value (FAK2 Catalytic Domain) read?
**A.** 1.5 degrees Celcius

**Q.** And the “Melting temperature (Tm) shift” value (DMPK Catalytic Domain [15])?
**A.** 1.2 degrees Celcius

**Q.** What about the “Melting temperature (Tm) shift” value (STK3 Catalytic Domain [16]) of the same molecule?
**A.** 0.3 degrees Celcius

**Q.** What about the “Melting temperature (Tm) shift” value (CDK2 + Cyclin A [17]) of the same molecule?
**A.** 0.7 degrees Celcius

**Q.** What about the “Melting temperature (Tm) shift” value (SRC Catalytic Domain [18]) of the same molecule?
**A.** 2.6 degrees Celcius

**Q.** What about the “Melting temperature (Tm) shift” value (CHK2 Catalytic Domain [19]) of the same molecule?
**A.** 2.1 degrees Celcius

**Q.** What about the “Melting temperature (Tm) shift” value (FES Catalytic Domain+SH2 [20]) of the same molecule?
**A.** 2.0 degrees Celcius

**Q.** What about the “Melting temperature (Tm) shift” value [21] of the same molecule?
**A.** 0.5 degrees Celcius

**Q.** And the “Melting temperature (Tm) shift” value (PAK7 Catalytic Domain [22])?
**A.** 1.1 degrees Celcius

**Q.** What about the “Melting temperature (Tm) shift” value [23] of the same molecule?
**A.** 3.1 degrees Celcius

**Q.** And the “Melting temperature (Tm) shift” value (AKT3 Catalytic Domain [24])?
**A.** 0.1 degrees Celcius

**Q.** And the “Melting temperature (Tm) shift” value (PAK4 Catalytic Domain [25])?
**A.** 1.3 degrees Celcius

**Q.** And the “Melting temperature (Tm) shift” value (CDK2 + Cyclin E [26])?
**A.** 0.2 degrees Celcius

**Q.** And the “Melting temperature (Tm) shift” value (FES Catalytic Domain [27])?
**A.** 4.1 degrees Celcius

**Q.** And the “Melting temperature (Tm) shift” value [28]?
**A.** 1.5 degrees Celcius
